# Source: PubChem BioAssay (NCI)
#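 A five-concentration, 48-hour dose response in 96-well plates underlies each endpoint, interpolated linearly between surrounding concentrations. TGI denotes the concentration required for complete inhibition of growth.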
# Legend:
# Experiment in all cases: NCI anticancer screen, dose series, 48 h
# [1] = tested on: 786-0 renal
# [2] = tested on: A498 renal
# [3] = tested on: A549 NSCLC
# [4] = tested on: ACHN renal
# [5] = tested on: BT-549 breast
# [6] = tested on: CAKI-1 renal
# [7] = tested on: CCRF-CEM leukemia
# [8] = tested on: COLO 205 colon
# [9] = tested on: DU-145 prostate
# [10] = tested on: EKVX NSCLC
# [11] = tested on: HCC-2998 colon
# [12] = tested on: HCT-116 colon
# [13] = tested on: HCT-15 colon
# [14] = tested on: HL-60(TB) leukemia
# [15] = tested on: HOP-62 NSCLC
# [16] = tested on: HOP-92 NSCLC
# [17] = tested on: HS 578T breast
# [18] = tested on: HT29 colon
# [19] = tested on: IGROV1 ovarian
# [20] = tested on: K-562 leukemia
# [21] = tested on: KM12 colon
# [22] = tested on: LOX IMVI melanoma
# [23] = tested on: M14 melanoma
# [24] = tested on: MALME-3M melanoma
# [25] = tested on: MCF7 breast
# [26] = tested on: MDA-MB-231 breast
# [27] = tested on: MDA-MB-435
# [28] = tested on: MDA-N
# [29] = tested on: MOLT-4 leukemia
# [30] = tested on: NCI-H226 lung
# [31] = tested on: NCI-H23 lung
# [32] = tested on: NCI-H460 lung
# [33] = tested on: NCI-H522 lung
# [34] = tested on: NCI/ADR-RES ovarian
# [35] = tested on: OVCAR-3 ovarian
# [36] = tested on: OVCAR-4 ovarian
# [37] = tested on: OVCAR-5 ovarian
# [38] = tested on: OVCAR-8 ovarian
# [39] = tested on: PC-3 prostate
# [40] = tested on: RPMI-8226 leukemia
# [41] = tested on: RXF 393 renal
# [42] = tested on: SF-268 CNS
# [43] = tested on: SF-295 CNS
# [44] = tested on: SF-539 CNS
# [45] = tested on: SK-MEL-2 melanoma
# [46] = tested on: SK-MEL-28 melanoma
# [47] = tested on: SK-MEL-5 melanoma
# [48] = tested on: SK-OV-3 ovarian
# [49] = tested on: SN12C renal
# [50] = tested on: SNB-19 CNS
# [51] = tested on: SNB-75 CNS
# [52] = tested on: SR leukemia
# [53] = tested on: SW-620 colon
# [54] = tested on: T-47D breast
# [55] = tested on: TK-10 renal
# [56] = tested on: U251 CNS
# [57] = tested on: UACC-257 melanoma
# [58] = tested on: UACC-62 melanoma
# [59] = tested on: UO-31 renal
structure (smiles),measurement,setting,value
CCC12C=CCN3CCC4(c5cc(C(c6ccc(OC)cc6)C6Cc7ccccc7N6)c(OC)cc5N(C)C4C(O)(C(=O)OC)C1O)C32 (stereo unspecified),TGI,[1],> 100 µM
same,TGI,[2],80.3 µM
same,TGI,[3],> 100 µM
same,TGI,[4],> 100 µM
same,TGI,[5],80.6 µM
same,TGI,[6],> 100 µM
same,TGI,[7],16.6 µM
same,TGI,[8],27.5 µM
same,TGI,[9],> 100 µM
same,TGI,[10],> 100 µM
same,TGI,[11],57.5 µM
same,TGI,[12],> 100 µM
same,TGI,[13],> 100 µM
same,TGI,[14],24.1 µM
same,TGI,[15],90.1 µM
same,TGI,[16],8.14 µM
same,TGI,[17],> 100 µM
same,TGI,[18],> 100 µM
same,TGI,[19],51.2 µM
same,TGI,[20],41.7 µM
same,TGI,[21],36.5 µM
same,TGI,[22],36 µM
same,TGI,[23],> 100 µM
same,TGI,[24],> 100 µM
same,TGI,[25],28.3 µM
same,TGI,[26],59.2 µM
same,TGI,[27],80.4 µM
same,TGI,[28],> 100 µM
same,TGI,[29],18.2 µM
same,TGI,[30],> 100 µM
same,TGI,[31],> 100 µM
same,TGI,[32],54.5 µM
same,TGI,[33],98 µM
same,TGI,[34],> 100 µM
same,TGI,[35],94.9 µM
same,TGI,[36],> 100 µM
same,TGI,[37],> 100 µM
same,TGI,[38],> 100 µM
same,TGI,[39],> 100 µM
same,TGI,[40],13.8 µM
same,TGI,[41],83.1 µM
same,TGI,[42],> 100 µM
same,TGI,[43],> 100 µM
same,TGI,[44],78.4 µM
same,TGI,[45],68.8 µM
same,TGI,[46],> 100 µM
same,TGI,[47],52 µM
same,TGI,[48],> 100 µM
same,TGI,[49],> 100 µM
same,TGI,[50],> 100 µM
same,TGI,[51],33.7 µM
same,TGI,[52],27 µM
same,TGI,[53],> 100 µM
same,TGI,[54],9.98 µM
same,TGI,[55],66.3 µM
same,TGI,[56],35.4 µM
same,TGI,[57],> 100 µM
same,TGI,[58],31.4 µM
same,TGI,[59],31.5 µM
CCNc1nnc(-c2ccccc2Nc2ccccc2-c2nnc(NCC)s2)s1,TGI,[1],17 µM
same,TGI,[2],91 µM
same,TGI,[3],> 62 µM
same,TGI,[4],31 µM
same,TGI,[5],> 79.7 µM
same,TGI,[6],17 µM
same,TGI,[7],31.4 µM
same,TGI,[8],> 53.9 µM
same,TGI,[9],40.1 µM
same,TGI,[10],> 100 µM
same,TGI,[11],27.8 µM
same,TGI,[12],> 56 µM
same,TGI,[13],> 45.2 µM
same,TGI,[15],> 100 µM
same,TGI,[16],54.2 µM
same,TGI,[17],> 65.7 µM
same,TGI,[18],60.5 µM
same,TGI,[19],> 100 µM
same,TGI,[20],> 100 µM
same,TGI,[21],37.2 µM
same,TGI,[22],38.5 µM
same,TGI,[23],40 µM
same,TGI,[24],58.4 µM
same,TGI,[25],29.7 µM
same,TGI,[26],25.7 µM
same,TGI,[27],71.4 µM
same,TGI,[28],35 µM
same,TGI,[29],> 78.3 µM
same,TGI,[30],77.2 µM
same,TGI,[31],73.3 µM
same,TGI,[32],31.3 µM
same,TGI,[33],26.9 µM
same,TGI,[34],> 100 µM
same,TGI,[35],> 100 µM
same,TGI,[36],> 100 µM
same,TGI,[37],48.5 µM
same,TGI,[38],> 83.9 µM
same,TGI,[39],> 69.4 µM
same,TGI,[40],73.4 µM
same,TGI,[41],85.8 µM
same,TGI,[42],68.6 µM
same,TGI,[43],40.5 µM
same,TGI,[45],31 µM
same,TGI,[46],55.2 µM
same,TGI,[47],25.6 µM
same,TGI,[48],31.3 µM
same,TGI,[49],> 49.7 µM
same,TGI,[50],> 100 µM
same,TGI,[51],> 87.9 µM
same,TGI,[52],> 100 µM
same,TGI,[53],> 100 µM
same,TGI,[54],> 84.8 µM
same,TGI,[55],> 57.6 µM
same,TGI,[56],> 55.4 µM
same,TGI,[57],90.3 µM
same,TGI,[58],35.3 µM
same,TGI,[59],21.3 µM
